Measurements reported in patent US20250304620A1, “ANTIMICROBIAL PEPTIDE AND APPLICATION THEREOF” (priority 2023, published 2025).
≈ marks a conversion by molar mass, not a printed value. Where two headings read alike, the source gives them in different places. Marks after values point to notes of the source that are not given here. Non-standard residues stand in square brackets, D forms with d. Residues, ends and D or L forms follow the SMILES beside them. dPhe(4-Me) = Cc1ccc(C[C@@H](N)C(=O)O)cc1; 2Nal = N[C@@H](Cc1ccc2ccccc2c1)C(=O)O; PEG1000 = polyethylene glycol 1000

Experiments:
[1] = system: Staphylococcus aureus (NRS 384); assay: microbe, parasite or virus in culture; type: cell-based
In short: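 MICs were read against S. aureus strain NRS 384 using twofold serial dilution by CLSI microdilution rules. Levofloxacin and Cbf-K16 were the reference controls, and the test was repeated 5 times in parallel.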

[2] = system: Escherichia coli ATCC 25922; type: cell-based
Text: (§1) According to the Standards of Clinical and Laboratory Standards Institute (CLSI) of the USA for antimicrobial drug susceptibility test operation standards, the micronutrient serial twofold dilution method was used further determine MICs of 30 AMPs (S/N: LV-1 to LV-30) 10 clinically common sensitive strains and 6 fungi in clinical practice. The experiment was repeated 5 times in parallel.

[3] = system: Bacillus subtilis ATCC 6633; type: cell-based
Text: as §1

[4] = system: Staphylococcus aureus ATCC 25923; type: cell-based
Text: as §1

[5] = system: Candida albicans ATCC MYA-2876; type: cell-based
Text: as §1

[6] = system: Corynebacterium ATCC 7715; type: cell-based
Text: as §1

[7] = system: Trichophyton ATCC MYA-4438; type: cell-based
Text: as §1

[8] = system: Salmonella typhimurium ATCC 14028; type: cell-based
Text: as §1

[9] = system: Pseudomonas aeruginosa ATCC 27853; type: cell-based
Text: as §1

[10] = system: Serratia marcescens ATCC 29021; type: cell-based
Text: as §1

Enterococcus ATCC 29212 = type: cell-based
Text: as §1

Candida krusei ATCC 6258 = type: cell-based
Text: as §1

[11] = system: Candida glabrata ATCC 15126; type: cell-based
Text: as §1

[12] = system: Candida tropicalis ATCC 750; type: cell-based
Text: as §1

Candida utilis ATCC 9950 = type: cell-based
Text: as §1

[13] = system: Klebsiella pneumoniae ATCC 700603; type: cell-based
Text: as §1

[14] = system: Pseudomonas aeruginosa ATCC 27853; assay: Injectable formulations on mice infected with peritonitis; type: in vivo, ICR mice; conditions: 1 mg/kg via tail vein, twice a day for 3 days, n = 10; for Average survival times (Days): observed for 14 d
Method: Both female and male ICR mice were used in the test, half of the female and male mice were taken and randomly assigned into groups, with 10 mice in each group, and kept in separate cages. The mice were divided into a blank control group, a negative control group, a positive control Levofloxacin group, and AMPs LV-1 to LV-30 groups. A bacterial suspension of Pseudomonas aeruginosa ATCC 27853 was prepared, a concentration of the suspension was adjusted 1×10^9 CFU/mL for subsequent use. Except for the blank control group, all other mice were injected with the bacterial suspension (0.2 mL, 1×10^9 CFU/mL), into abdominal cavity of the mice, to establish a model. After the model was successfully established, the mice were given drug immediately according to their body weights. Except for the blank control group and the negative control group, the mice in all other groups were administered the corresponding injectable formulations via tail vein, twice a day for 3 consecutive days. The mice were then observed for 14 d. The death of mice in each group was observed, and survival time of the mice was recorded. Results of the effect of the injectable formulations of AMPs LV-1 to LV-30 on the survival time of mice infected with Pseudomonas aeruginosa are shown in Table 10.

[15] = system: Escherichia coli ATCC 25922; assay: Oral formulations on mice with systemic bacterial infection; type: in vivo, ICR mice; conditions: 1 mg/kg gavage, three times a day for 7 days, n = 10; for Average survival times (Days): observed for 14 d
Method: Both female and male ICR mice were used in the test, half of the female and male mice were taken and randomly assigned into groups, with 10 mice in each group, and kept in separate cages. The mice were divided into a blank control group, a negative control group, a positive control Levofloxacin group, and AMPs LV-1 to LV-30 groups. An Escherichia coli ATCC 25922 bacterial suspension was prepared, a concentration of the suspension was adjusted 1×10^7 CFU/mL for subsequent use. Except for the blank control group, all other mice were injected with the Escherichia coli suspension (0.2 mL, 1×10^7 CFU/mL), into abdominal cavity of the mice, to establish a model. After the model was successfully established, the mice were given drug immediately according to their body weights. Except for the blank control group and the negative control group, the mice in all other groups were gavaged with different compounds, three times a day for 7 consecutive days. The mice were then observed for 14 d. The death of mice in each group was observed, and survival time of the mice was recorded. Results of the effect of the oral formulations of AMPs LV-1 to LV-30 on the survival time of mice infected with Escherichia coli are shown in Table 11.

[16] = system: Staphylococcus aureus (NRS 384)
Method: Trypsin (250 U/mg, pH=8.0) and AMPs (LV-1 to LV-30) were mixed in a ratio of 1:10 (w/w) and added to a reaction buffer (0.2 M sodium phosphate, 1 mM CaCl2), pH 7.5), and then incubated at 37° C. for 3 h.

Molecule	MIC Escherichia coli ATCC 25922 [2] [µg/mL]	MIC Bacillus subtilis ATCC 6633 [3] [µg/mL]	MIC Staphylococcus aureus ATCC 25923 [4] [µg/mL]	MIC Candida albicans ATCC MYA-2876 [5] [µg/mL]	MIC Corynebacterium ATCC 7715 [6] [µg/mL]	MIC Trichophyton ATCC MYA-4438 [7] [µg/mL]	MIC Salmonella typhimurium ATCC 14028 [8] [µg/mL]	MIC Pseudomonas aeruginosa ATCC 27853 [9] [µg/mL]	MIC Serratia marcescens ATCC 29021 [10] [µg/mL]	MIC Enterococcus ATCC 29212 (Enterococcus ATCC 29212) [µg/mL]	MIC Candida krusei ATCC 6258 (Candida krusei ATCC 6258) [µg/mL]	MIC Candida glabrata ATCC 15126 [11] [µg/mL]	MIC Candida tropicalis ATCC 750 [12] [µg/mL]	MIC Candida utilis ATCC 9950 (Candida utilis ATCC 9950) [µg/mL]	MIC Klebsiella pneumoniae ATCC 700603 [13] [µg/mL]	Number of mice that died on each day after infection: day 1 [14] [Mouse]	Number of mice that died on each day after infection: day 2 [14] [Mouse]	Number of mice that died on each day after infection: day 3 [14] [Mouse]	Number of mice that died on each day after infection: day 4 [14] [Mouse]	Number of mice that died on each day after infection: day 5 [14] [Mouse]	also measured
Ac-RKLLXRLKXRK-PEG1000 [LV-28] (Ac-RKLL[2Nal]RLK[2Nal]RK-PEG1000)	2	4	2	8	8	8	4	2	8	8	4	8	4	8	4	1	0	1	1	1	MIC against Staphylococcus aureus (NRS 384) ([1]; Staphylococcus aureus (NRS 384)): 1 µg/mL; Average survival times (Days) [14]: 9.7*** Days; Number of mice that died on each day after infection: day 4 [15]: 1 Mouse; Number of mice that died on each day after infection: day 5 [15]: 2 Mouse; Number of mice that died on each day after infection: day 6 [15]: 1 Mouse; Number of mice that died on each day after infection: day 7 [15]: 1 Mouse; Number of mice that died on each day after infection: day 8 [15]: 0 Mouse; Average survival times (Days) [15]: 9.7** Days; Trypsin MIC ([16]; MIC vs Staphylococcus aureus (NRS 384) after trypsin treatment 1:10 (w/w), 37° C., 3 h): 1 µg/mL
CC(=O)N[C@H](CCCNC(=N)N)C(=O)N[C@H](CCCCN)C(=O)N[C@H](CC(C)C)C(=O)N[C@H](CC(C)C)C(=O)N[C@H](Cc1ccc(C)cc1)C(=O)N[C@H](CCCCN)C(=O)N[C@H](CC(C)C)C(=O)N[C@H](CCCCN)C(=O)N[C@H](Cc1ccc(C)cc1)C(=O)N[C@H](CCCCN)C(=O)N[C@H](CCCNC(=N)N)C(N)=O [LV-11] (Ac-[dR][dK][dL][dL][dPhe(4-Me)][dK][dL][dK][dPhe(4-Me)][dK][dR]-NH2)	2 (≈ 1.29 µM)	4 (≈ 2.59 µM)	1 (≈ 0.647 µM)	8 (≈ 5.17 µM)	8 (≈ 5.17 µM)	8 (≈ 5.17 µM)	2 (≈ 1.29 µM)	2 (≈ 1.29 µM)	8 (≈ 5.17 µM)	2 (≈ 1.29 µM)	16 (≈ 10.3 µM)	16 (≈ 10.3 µM)	8 (≈ 5.17 µM)	8 (≈ 5.17 µM)	4 (≈ 2.59 µM)	0	1	1	0	2	MIC against Staphylococcus aureus (NRS 384) ([1]; NRS 384): 1 µg/mL (≈ 0.647 µM); Average survival times (Days) [14]: 9.9**** Days; Number of mice that died on each day after infection: day 4 [15]: 1 Mouse; Number of mice that died on each day after infection: day 5 [15]: 1 Mouse; Number of mice that died on each day after infection: day 6 [15]: 1 Mouse; Number of mice that died on each day after infection: day 7 [15]: 1 Mouse; Number of mice that died on each day after infection: day 8 [15]: 2 Mouse; Average survival times (Days) [15]: 9.4** Days; Trypsin MIC ([16]; NRS 384, 3 h): 1 µg/mL
